Values of other authors in patent US20100145053A1, “MODIFIED RELEASE CLOPIDOGREL FORMULATION” (CADILA HEALTHCARE LIMITED, priority 2006, published 2010).
Where two headings read alike, the source gives them in different places.

Key:
[1] = in vivo
[2] = tested on: platelet aggregation to ADP; conditions: 4 hours after 600-mg load
[3] = tested on: ADP-induced platelet aggregation; conditions: in vivo
[4] = tested on: platelet aggregation in response to ADP; conditions: 300-mg loading dose followed by 75 mg daily

Row | Time of peak concentration of Clopidogrel and its active metabolite post dosing [1] | Share of Clopidogrel available to undergo hepatic conversion to the active metabolite [1] | Share of Clopidogrel inactivated by esterases in the blood after absorption [1] | Inhibition of phosphodiesterase activity (phosphodiesterase) | SMILES | Nonresponders (<10% reduction in platelet aggregation) ([2]; 5 μmol/L ADP) | Semiresponders (10% to 29% reduction in platelet aggregation) ([2]; 5 μmol/L ADP) | Nonresponders (<10% reduction in platelet aggregation) ([2]; 20 μmol/ADP) | Semiresponders (10% to 29% reduction in platelet aggregation) ([2]; 20 μmol/ADP) | Time for platelet aggregation and bleeding time to return to baseline after treatment is discontinued [3] | Patients with Clopidogrel resistance (<10% reduction in aggregation in response to 5 μmol/L ADP) ([4]; at 2 hours) | Patients with Clopidogrel resistance (<10% reduction in aggregation in response to 5 μmol/L ADP) ([4]; at 24 hours) | Patients with Clopidogrel resistance (<10% reduction in aggregation in response to 5 μmol/L ADP) ([4]; at 5 days) | Patients with Clopidogrel resistance (<10% reduction in aggregation in response to 5 μmol/L ADP) ([4]; at 30 days)
1 | 1 to 3 h | – | – | – | COC(=O)[C@H](c1ccccc1Cl)N1CCc2sccc2C1 [Clopidogrel bisulfate] | – | – | – | – | – | – | – | – | –
2 | – | 15% | 85% | does not inhibit | COC(=O)[C@H](c1ccccc1Cl)N1CCc2sccc2C1 [Clopidogrel, Methyl (+)-(S)-alpha-(o-chlorophenyl)-6,7-dihydrothieno(3,2-c)pyridine-5(4H)-acetate] | 5% | 9% | 11% | 26% | about 5 days | 63 % of patients | 31 % of patients | 31 % of patients | 15 % of patients
